Reference: patent US4683292A, “Immunotherapeutic polypeptide agents which bind to lymphocyte immunoglobulin FC receptors” (Immunetech, Inc., priority 1983, dated 1987)
Ends that are not written are not given here. Peptide text beside a SMILES is read from it.

Tests used:
[1] = tested on: MONOCYTE/MACROPHAGE Fc Receptor IgG; assay: Rosette inhibition assay, IgG-coated ox erythrocytes, monocytes / U937; format: binding, human; conditions: relative to intact monomeric myeloma protein at equal concentration; 15 min preincubation
Procedure: (§1) The Fc receptor blocking activity of the subject peptides was assessed using well established techniques and procedures. In particular, a rosette assay was employed which uses either monomeric, chemically or heat aggregated human IgG or IgE obtained from human myeloma sera. (Gonzalez-Molina, et al., J. Clin. Invest., 59, 616 (1977); Spiegelberg, et al. in Immunoassays: Clinical Laboratory Techniques for the 1980's (Alan R. Liss: New York, 1980), pp. 287-300). The IgG or IgE is then adsorbed to ox-erythrocytes which has been previously treated with trypsin and pyruvic aldehyde. […] Addition of inhibitor myeloma proteins or inhibitor peptides produced a reproducable reduction of rosette formation, […], phosphate buffered isotonic saline, was used alone as control and then multiplying the calculated quotient by 100.
(§2) Table 1 presents the inhibition observed by representative peptide inhibitors calculated as a percentage of the inhibition observed with intact, monomeric myeloma proteins. […]

BASOPHIL Fc Receptor IgG = assay: Rosette inhibition assay, IgG-coated ox erythrocytes, basophils; format: binding, human; conditions: relative to intact monomeric myeloma protein at equal concentration; 15 min preincubation
Procedure: as §1, §2

[2] = tested on: NEUTROPHIL (PMN) Fc Receptor IgG; assay: Rosette inhibition assay, IgG-coated ox erythrocytes, fresh human PMNs; format: binding; conditions: relative to intact monomeric myeloma protein at equal concentration; 15 min preincubation
Procedure: as §1, §2

[3] = tested on: systemic allergic disease; conditions: humans, subcutaneous injection; cited from earlier work
[4] = biological target: T1, IgE Fc receptor of human basophils (Homo sapiens, UniProt P12319); conditions: Plummer et al. 1983; cited from earlier work
T1 construct: host or cells: human basophils
T1 sequence (P12319 26-257): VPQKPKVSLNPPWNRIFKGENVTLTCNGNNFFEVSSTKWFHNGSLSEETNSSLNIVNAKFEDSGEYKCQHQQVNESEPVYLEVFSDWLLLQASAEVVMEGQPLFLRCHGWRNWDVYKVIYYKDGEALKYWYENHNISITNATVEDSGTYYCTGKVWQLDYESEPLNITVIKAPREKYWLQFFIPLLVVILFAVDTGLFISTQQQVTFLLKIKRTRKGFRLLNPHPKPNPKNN
T1 sequence (Q01362 1-244 partner): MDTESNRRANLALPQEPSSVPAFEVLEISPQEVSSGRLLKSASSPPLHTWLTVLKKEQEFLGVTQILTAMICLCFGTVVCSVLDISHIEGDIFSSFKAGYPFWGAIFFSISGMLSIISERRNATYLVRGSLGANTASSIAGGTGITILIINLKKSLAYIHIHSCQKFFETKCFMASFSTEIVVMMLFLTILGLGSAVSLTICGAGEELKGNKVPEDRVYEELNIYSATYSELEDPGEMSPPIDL
T1 sequence (P30273 19-86 partner): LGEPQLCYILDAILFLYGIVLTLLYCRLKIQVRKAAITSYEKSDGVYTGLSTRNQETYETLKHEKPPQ

[5] = tested on: granulocytes, monocytes and macrophages; conditions: in vitro; cited from earlier work
rodent mast cells = conditions: Stanworth et al. 1979; cited from earlier work
human mast cells = conditions: Stanworth et al. 1979; cited from earlier work
[6] = tested on: human monocyte IgG Fc receptors; conditions: Ciccimarra et al. 1975; Ratcliffe and Stanworth 1982; cited from earlier work

CC(=O)N[C@@H](CCC(N)=O)C(=O)N1CCC[C@H]1C(=O)N[C@@H](CCC(=O)O)C(=O)N[C@@H](CC(N)=O)C(=O)O [Ac--Gln--Pro--Glu--Asn, Ac-Gln-Pro-Glu-Asn] (Ac-QPEN-OH)
Rosette inhibition expressed as percent inhibition by monomeric IgG, monocyte/macrophage Fc receptor IgG [1]: 19%
Rosette inhibition expressed as percent inhibition by monomeric IgG, basophil Fc receptor IgG (BASOPHIL Fc Receptor IgG): 74%
Rosette inhibition expressed as percent inhibition by monomeric IgG, neutrophil (PMN) Fc receptor IgG [2]: 95%

Asp-Ser-Asp-Pro-Arg (DSDPR; printed: Asp-Ser-Asp-Pro-Arg) [pentapeptide derived from human IgE Cε 3 at aa 320-324]
inhibition of systemic allergic disease [3]: inhibit systemic allergic disease
blocking of human IgE binding to basophil IgE Fc receptors [4]: up to 70%

Gly-Gln-Pro-Arg (GQPR; printed: Gly-Gln-Pro-Arg) [Rigin, tetrapeptide analogue of Tuftsin]
stimulation of phagocytosis [5]: phagocytosis-stimulating abilities similar to those of Tuftsin

PRKTKGSGFFVF [portion of Cε 4 of human IgE, aa 495-506]
degranulation of mast cells (rodent mast cells): cause degranulation
degranulation of mast cells (human mast cells): cause degranulation

QYDSTYR [heptapeptide identical to IgG aa 295-301]
blocking of IgG binding to human monocyte IgG Fc receptors [6]: slightly block
